Patent US20260190612A1, “LIGHT-EMITTING DEVICE” (SEMICONDUCTOR ENERGY LABORATORY CO., LTD., priority 2022, published 2026)
Converted amounts (≈) assume the structure as drawn.

Assay: solubility of the first organic compound in water

Row | solubility [µg/mL] | Compound
1 | 230 to 390 (≈ 389 to 660 µM) | c1ccc2c(c1)-c1ccccc1C21c2cc(N3CCCN4CCCN=C43)ccc2-c2ccc(N3CCCN4CCCN=C43)cc21 [2,7hpp2SF, 1,1′-(9,9′-spirobi[9H-fluorene]-2,7-diyl)bis(1,3,4,6,7,8-hexahydro-2H-pyrimido[1,2-a]pyrimidine)]
2 | 18 to 22 (≈ 39.7 to 48.5 µM) | c1ccc2c(c1)-c1ccccc1C21c2ccccc2-c2ccc(N3CCCN4CCCN=C43)cc21 [2hppSF, 1-(9,9′-spirobi[9H-fluoren]-2-yl)-1,3,4,6,7,8-hexahydro-2H-pyrimido[1,2-a]pyrimidine]
3 | < 2.3 | CC(C)(C)c1ccc2c(c1)C1(c3ccccc3-c3ccc(N4CCCN5CCCN=C54)cc31)c1cc(C(C)(C)C)ccc1-2 [2′,7′tBu-2hppSF, 1-(2′,7′-di-tert-butyl-9,9′-spirobi[9H-fluoren]-2-yl)-1,3,4,6,7,8-hexahydro-2H-pyrimido[1,2-a]pyrimidine]
